Laboratory results taken from patent EP4635959A1, “NOVEL CRYSTALLINE FORM OF MAGNESIUM-SERINATE AND METHOD FOR PRODUCING SAME” (Astrogen, Inc., priority 2022, dated 2024).

Key:
primary mouse astrocytes = experiment: Cytoprotective effect on oxidative stress induced by DMNQ (MTT cell viability); type: cell-based; settings: for cell viability: pre-treated 6 hours with 1 mM, 2 mM, 5 mM, then DMNQ (30 µM) with compound for 16 hours, MTT, Fig. 8
Protocol: A 1-day-old mouse brain was removed, the olfactory bulb was removed, and the meninges were peeled off. After collecting the resultant in a 50 mL tube including HBSS (Hank's balanced salt solution) and centrifuging at 250 × g for 1 minute, the supernatant was removed. 2 mL of trypsin/EDTA (0.5 %), 8 mL of HBSS buffer, and 0.2 mL of DNase were mixed and reacted in a 37 °C constant temperature water bath for 30 minutes. After adding 18 mL of the culture medium and 2 mL of trypsin/EDTA thereto and pipetting 10 times, the resultant was filtered using a 40 µm cell strainer. Then, the supernatant was removed after centrifugation at 800 × g for 2 minutes. After adding 5 mL of the culture solution thereto, the number of cells was confirmed using a hemocytometer and the cells were cultured to obtain primary mouse astrocytes.
After inoculating cells (primary astrocytes, 1 × 10^5 cells) per well in a 96-well plate and culturing at 5 % CO2 and 37 °C for 24 hours to obtain a cell monolayer, the composition was diluted with a cell inoculation medium and the diluted composition each at a concentration of 0 mM, 1 mM, 2 mM, and 5 mM was inoculated at 100 µL/well, and then cultured in a 5 % CO2 and 37 °C incubator for 6 hours. […] Then, after removing the culture medium, 0.5 mg/mL of MTT solution was added to each well in an amount of 100 µL and reacted in a 5 % CO2 and 37 °C incubator for 2 hours. After completely removing the MTT solution and drying the culture plate, the formazan crystals formed in the cells were dissolved with DMSO, and the absorbance was measured at 590 nm with an ELISA plate reader to evaluate cell viability and drug efficacy.

[1] = Stability test under harsh condition (qNMR, maleic acid standard); type: physicochemical
Protocol: In order to confirm the stability of the crystalline form of the present invention depending on conditions, a stability test was conducted under harsh conditions.
The magnesium-serinate crystalline form prepared in Example 2 was stored in a solid state at 70 °C and in an aqueous solution having a concentration of 0.5 mg/mL at 25 °C (60.0 % relative humidity) for 21 days, respectively, and then maleic acid was set as a standard substance, and the stability (measurement of content and related materials) was confirmed through qNMR analysis.
For the qNMR analysis method, analysis conditions were established by measuring the spin-lattice relaxation time T1 of the nuclide ^1H of magnesium-serinate on the sample obtained through the preliminary stress test. The T1 value was set at 4.708 seconds, and the measurement waiting time (d1: delay time) and measurement time (at: acquisition time) were set based on this value. The measurement waiting time (d1) was set to 30 seconds, and the measurement time (at) was set to being equal to or greater than the T1 value.
For the ^1H-NMR measurement for qNMR analysis, JEOL's JNM-ECX400I (400 MHz) NMR equipment was used, and spectral width (sw) was set at 6,000 Hz to sufficiently reflect the frequency range from 0 ppm to 10 ppm.

[2] = Evaluation of occurrence of polymorphic transition on storage (PXRD and DSC); type: physicochemical; settings: for DSC Endothermic Temperature: (dec.)
Protocol: In order to confirm whether the polymorphic transition of the magnesium-serinate crystalline form of the present invention occurs over time, PXRD and DSC analyses were performed in the initial state and after 4 weeks to confirm whether or not the polymorphic transition occurred.
Specifically, the crystalline form prepared in Example 2 was added into a polyethylene bag, placed in a stability chamber under conditions of a temperature of 40 °C and a relative humidity of 75 %, and stored for 4 weeks. PXRD and DSC analyses were performed in substantially the same manner as in Experimental Examples 2 and 3.

[3] = Moisture measurement (Karl Fischer method); type: physicochemical; settings: 0.5 g of sample
Protocol: (§1) Moisture and pH evaluations were performed in the same manner as in Experimental Example 7, and the heavy metal test and the content test were performed in the same manner as in Example 1.
(§2) The crystalline form of the present application prepared in Example 1 and the amorphous form of AST-011 (Comparative Example 2) were comparatively evaluated for the following test items by the following methods, and the results are shown in Table 7 below. - Appearance evaluation: Visual observation - Moisture measurement: According to the moisture measurement method (Karl Fischer method) of the general test method of the 12th edition of the Korean Pharmacopoeia, measured by adding 0.5 g of the sample into a moisture meter (Mettler Toledo, V10-S, Switzerland). - Infrared spectrum measurement method (IR): Measurement was made with FT-IR equipment (PerkinElmer, Spectrum 2, USA) according to the ATR measurement method of the general test method of the 12th revision of the Korean Pharmacopoeia. - pH measurement: 0.5 g of the sample was added into a 10 mL volumetric flask, and water was added to a final volume of 10 mL, and measurement was made with a pH meter (Mettler Toledo, FP-20 Switzerland). - XRD and DSC analyses: The analyses were performed in the same way as in Experimental Examples 2 and 3.

[4] = pH measurement of aqueous sample; type: physicochemical; settings: 0.5 g of sample in water, final volume 10 mL
Protocol: as §1, §2

[5] = Appearance evaluation on storage (visual observation); type: physicochemical; settings: storage for 3 months under the same conditions as AST-011
Text: as §2, with “3. […]” for “3.”

[6] = 25°C, Aqueous solution state (0.5 mg/mL, 60.0 % relative humidity), initial state
[7] = 70°C, Solid state, initial state
[8] = initial vs after 4 weeks at 40 °C, relative humidity 75 %

Row | Purity of magnesium-serinate (%) ([1]; 25°C, Aqueous solution state (0.5 mg/mL, 60.0 % relative humidity), 9 days) | Concentration of Total Related Materials (%) ([1]; 25°C, Aqueous solution state (0.5 mg/mL, 60.0 % relative humidity), 21 days) | Concentration of Total Related Materials (%) [1, 6] [%] | Purity of magnesium-serinate (%) [1, 6] [%] | Purity of magnesium-serinate (%) ([1]; 70°C, Solid state, 9 days) | Concentration of Total Related Materials (%) ([1]; 70°C, Solid state, 21 days) | Concentration of Total Related Materials (%) [1, 7] [%] | Purity of magnesium-serinate (%) [1, 7] [%] | DSC Endothermic Temperature ([2]; after 4 weeks at 40 °C and relative humidity of 75 %, polyethylene bag) | Result of Comparative Analysis [2, 8] | Result of PXRD Analysis [2, 8] | DSC Endothermic Temperature ([2]; initial) | Moisture Content [3] [%] | Moisture Content ([3]; listed as Example 2) [%] | pH [4] | SMILES | cell viability (primary mouse astrocytes) | Appearance (stability) [5] | cytotoxicity at 30 µM (primary mouse astrocytes; Mus musculus, Astrocyte, 16 h, read-out: cells killed by oxidative stress) [%]
1 | – | – | – | – | – | – | – | – | – | – | – | – | – | – | – | N[C@@H](CO)C(=O)O [Comparative Example 1, L-serine] | excellent | – | –
2 | 100.07 | 0.00 | 0.00 | 100.12 | 100.15 | 0.00 | 0.00 | 100.12 | 282.5 °C (dec.) | no occurrence of polymorphic transition | same crystalline form | 283.0 °C (dec.) | 0.2 | 0.1 | 10.3 | N[C@@H](CO)C(=O)[O-].N[C@@H](CO)C(=O)[O-].[Mg+2] [Crystalline Form of Present Application, magnesium-di-(2S)-2-amino-3-hydroxypropanoate] | excellent | Fig. 7(b) light gray or white powder (stability: no change after 3 months) | –
3 | – | – | – | – | – | – | – | – | – | – | – | – | – | – | – | COC1=C(OC)C(=O)c2ccccc2C1=O [DMNQ, 1,4-naphthoquinone] | – | – | ~50
